The compounds below were run against T1, human MC5R (Homo sapiens, UniProt P33032) (assay: Human MC5R radioligand binding assay ([125I] NDP-MSH displacement, hMC5R membranes)). Settings: hMC5R assay as in Example 102; compounds tested as trifluoroacetate or hydrochloride salts, or as free base.
T1 construct: purchased Perkin Elmer RBXMC5M400UA
Description: After incubation for 10 mins the phosphate buffer containing the iodine was added to NDP-MSH (10 ul at 1 mg/mL) in a separate eppendorf tube. This was incubated for a further 10 mins.
Resuspended membranes were kept on ice until they were added to the wells of the plate.
Assays were performed in 96 well polypropylene plates. […] This was incubated for 1 hr at 37 °C. Non-specific binding was determined with […] NDP-MSH. Plates were filtered using a Tomtec cell harvester with GF/A filters (Wallac) (presoaked in 0.6% polyethylenimine) and washed three times with 1.0 mL ice-cold wash buffer (the above incubation buffer without 1,10-phenanthroline and Complete™ protease inhibitor tablet). The filters were dried in a 37 °C oven, placed in a sample bag and 5 mL Betaplatescint (Wallac) was added. Prepared filters were counted in cassettes in a Microbeta Trilux (Wallac) for 1 min. […] Data analysis was performed using GraphPad Prism 4, employing competition binding with a single site model and a fixed Hill coefficient. The following equation was used: Y = Bottom + (Top-Bottom)/1/10^(X-logEC50), where X = log(concentration) and Y = binding to fit the data.

T1 sequence (P33032 whole entry): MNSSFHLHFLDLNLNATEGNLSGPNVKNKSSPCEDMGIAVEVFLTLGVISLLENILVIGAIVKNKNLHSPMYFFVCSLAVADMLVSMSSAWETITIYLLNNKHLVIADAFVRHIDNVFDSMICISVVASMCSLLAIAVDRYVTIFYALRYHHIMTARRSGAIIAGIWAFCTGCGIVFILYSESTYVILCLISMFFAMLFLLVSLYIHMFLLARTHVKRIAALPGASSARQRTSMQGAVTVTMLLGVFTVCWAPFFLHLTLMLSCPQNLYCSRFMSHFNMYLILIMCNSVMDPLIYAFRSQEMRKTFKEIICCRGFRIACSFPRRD

Row | IC50 | Compound
1 | < 10000 nM | NCCCC[C@@H]1N[C@H](CNC(=O)Cc2cccc3ccccc23)CCN(Cc2ccc3ccccc3c2)C1=O [Compound 125, N-(((3S,5S)-3-(4-aminobutyl)-1-(naphthalen-2-ylmethyl)-2-oxo-1,4-diazepan-5-yl)methyl)-2-(naphthalen-1-yl)acetamide]
2 | < 1000 nM | NCCCC[C@@H]1N[C@H](CNC(=O)c2ccc3ccccc3c2)CCN(CC(c2ccccc2)c2ccccc2)C1=O [Compound 126, N-(((3S,5S)-3-(4-aminobutyl)-1-(2,2-diphenylethyl)-2-oxo-1,4-diazepan-5-yl)methyl)-2-naphthamide]
3 | < 10000 nM | N=C(N)NCCC[C@@H]1N[C@H](CNC(=O)C2Cc3ccccc3C2)CCN(CC(c2ccccc2)c2ccccc2)C1=O [Compound 133, N-(((3S,5S)-1-(2,2-diphenylethyl)-3-(3-guanidinopropyl)-2-oxo-1,4-diazepan-5-yl)methyl)-2,3-dihydro-1H-indene-2-carboxamide]
4 | < 100 nM | N=C(N)NCCC[C@@H]1N[C@H](CNC(=O)c2ccc(Cl)cc2Cl)CCN(CC(c2ccccc2)c2ccccc2)C1=O [Compound 136, 2,4-dichloro-N-(((3S,5S)-1-(2,2-diphenylethyl)-3-(3-guanidinopropyl)-2-oxo-1,4-diazepan-5-yl)methyl)benzamide]
5 | < 1000 nM | N=C(N)NCCC[C@@H]1N[C@H](CNC(=O)c2cc(Cl)ccc2Cl)CCN(CC(c2ccccc2)c2ccccc2)C1=O [Compound 137, 2,5-dichloro-N-(((3S,5S)-1-(2,2-diphenylethyl)-3-(3-guanidinopropyl)-2-oxo-1,4-diazepan-5-yl)methyl)benzamide]
6 | < 10000 nM | N=C(N)NCCC[C@@H]1N[C@H](CNC(=O)C2CCCCC2)CCN(CC(c2ccccc2)c2ccccc2)C1=O [Compound 139, N-(((3S,5S)-1-(2,2-diphenylethyl)-3-(3-guanidinopropyl)-2-oxo-1,4-diazepan-5-yl)methyl)cyclohexanecarboxamide]
7 | < 100 nM | N=C(N)NCCC[C@@H]1N[C@H](CNC(=O)c2cc3ccccc3[nH]2)CCN(CC(c2ccccc2)c2ccccc2)C1=O [Compound 142, N-(((3S,5S)-1-(2,2-diphenylethyl)-3-(3-guanidinopropyl)-2-oxo-1,4-diazepan-5-yl)methyl)-1H-indole-2-carboxamide]
8 | < 1000 nM | N=C(N)NCCC[C@@H]1N[C@H](CNC(=O)CCc2ccccc2)CCN(CC(c2ccccc2)c2ccccc2)C1=O [Compound 143, N-(((3S,5S)-1-(2,2-diphenylethyl)-3-(3-guanidinopropyl)-2-oxo-1,4-diazepan-5-yl)methyl)-3-phenylpropanamide]
9 | < 100 nM | Cc1ccc(C(=O)NC[C@@H]2CCN(CC(c3ccccc3)c3ccccc3)C(=O)[C@H](CCCNC(=N)N)N2)cc1C [Compound 144, N-(((3S,5S)-1-(2,2-diphenylethyl)-3-(3-guanidinopropyl)-2-oxo-1,4-diazepan-5-yl)methyl)-3,4-dimethylbenzamide]
10 | < 1000 nM | CC(C)(C)c1ccc(C(=O)NC[C@@H]2CCN(CC(c3ccccc3)c3ccccc3)C(=O)[C@H](CCCNC(=N)N)N2)cc1 [Compound 145, 4-tert-butyl-N-(((3S,5S)-1-(2,2-diphenylethyl)-3-(3-guanidinopropyl)-2-oxo-1,4-diazepan-5-yl)methyl)benzamide]
11 | < 10000 nM | COc1ccc(C(=O)NC[C@@H]2CCN(CC(c3ccccc3)c3ccccc3)C(=O)[C@H](CCCNC(=N)N)N2)c(OC)c1 [Compound 146, N-(((3S,5S)-1-(2,2-diphenylethyl)-3-(3-guanidinopropyl)-2-oxo-1,4-diazepan-5-yl)methyl)-2,4-dimethoxybenzamide]
12 | < 1000 nM | N=C(N)NCCC[C@@H]1N[C@H](CNC(=O)CC2CCCCC2)CCN(CC(c2ccccc2)c2ccccc2)C1=O [Compound 147, 2-cyclohexyl-N-(((3S,5S)-1-(2,2-diphenylethyl)-3-(3-guanidinopropyl)-2-oxo-1,4-diazepan-5-yl)methyl)acetamide]
13 | < 1000 nM | N=C(N)NCCC[C@@H]1N[C@H](CNC(=O)c2ccc3c(c2)OCO3)CCN(CC(c2ccccc2)c2ccccc2)C1=O [Compound 148, N-(((3S,5S)-1-(2,2-diphenylethyl)-3-(3-guanidinopropyl)-2-oxo-1,4-diazepan-5-yl)methyl)benzo[d][1,3]dioxole-5-carboxamide]
14 | < 10000 nM | N=C(N)NCCC[C@@H]1N[C@H](CNC(=O)c2ccc3[nH]cnc3c2)CCN(CC(c2ccccc2)c2ccccc2)C1=O [Compound 149, N-(((3S,5S)-1-(2,2-diphenylethyl)-3-(3-guanidinopropyl)-2-oxo-1,4-diazepan-5-yl)methyl)-1H-benzo[d]imidazole-5-carboxamide]
15 | < 10000 nM | N=C(N)NCCC[C@@H]1N[C@H](CNC(=O)c2ccc3[nH]nnc3c2)CCN(CC(c2ccccc2)c2ccccc2)C1=O [Compound 150, N-(((3S,5S)-1-(2,2-diphenylethyl)-3-(3-guanidinopropyl)-2-oxo-1,4-diazepan-5-yl)methyl)-1H-benzo[d][1,2,3]triazole-5-carboxamide]
16 | < 10000 nM | N=C(N)NCCC[C@@H]1N[C@H](CNC(=O)C2CCCC2)CCN(CC(c2ccccc2)c2ccccc2)C1=O [Compound 151, N-(((3S,5S)-1-(2,2-diphenylethyl)-3-(3-guanidinopropyl)-2-oxo-1,4-diazepan-5-yl)methyl)cyclopentanecarboxamide]
17 | < 100 nM | N=C(N)NCCC[C@@H]1N[C@H](CNC(=O)c2ccc(Cl)c(Cl)c2)CCN(CC(c2ccccc2)c2ccccc2)C1=O [Compound 152, 3,4-dichloro-N-(((3S,5S)-1-(2,2-diphenylethyl)-3-(3-guanidinopropyl)-2-oxo-1,4-diazepan-5-yl)methyl)benzamide]
18 | < 1000 nM | N=C(N)NCCC[C@@H]1N[C@H](CNC(=O)c2cc(Cl)cc(Cl)c2)CCN(CC(c2ccccc2)c2ccccc2)C1=O [Compound 154, 3,5-dichloro-N-(((3S,5S)-1-(2,2-diphenylethyl)-3-(3-guanidinopropyl)-2-oxo-1,4-diazepan-5-yl)methyl)benzamide]
19 | < 1000 nM | N=C(N)NCCC[C@@H]1N[C@H](CNC(=O)Cc2ccc(Cl)cc2Cl)CCN(CC(c2ccccc2)c2ccccc2)C1=O [Compound 155, 2-(2,4-dichlorophenyl)-N-(((3S,5S)-1-(2,2-diphenylethyl)-3-(3-guanidinopropyl)-2-oxo-1,4-diazepan-5-yl)methyl)acetamide]
20 | < 100 nM | COc1c(C(=O)NC[C@@H]2CCN(CC(c3ccccc3)c3ccccc3)C(=O)[C@H](CCCNC(=N)N)N2)ccc2ccccc12 [Compound 156, N-(((3S,5S)-1-(2,2-diphenylethyl)-3-(3-guanidinopropyl)-2-oxo-1,4-diazepan-5-yl)methyl)-1-methoxy-2-naphthamide]
21 | < 10000 nM | N=C(N)NCCC[C@@H]1N[C@H](CNC(=O)Cc2ccc(Cl)c(Cl)c2)CCN(CC(c2ccccc2)c2ccccc2)C1=O [Compound 157, 2-(3,4-dichlorophenyl)-N-(((3S,5S)-1-(2,2-diphenylethyl)-3-(3-guanidinopropyl)-2-oxo-1,4-diazepan-5-yl)methyl)acetamide]
22 | < 100 nM | COc1ccc2cc(C(=O)NC[C@@H]3CCN(CC(c4ccccc4)c4ccccc4)C(=O)[C@H](CCCNC(=N)N)N3)ccc2c1 [Compound 158, N-(((3S,5S)-1-(2,2-diphenylethyl)-3-(3-guanidinopropyl)-2-oxo-1,4-diazepan-5-yl)methyl)-6-methoxy-2-naphthamide]
23 | < 100 nM | N=C(N)NCCC[C@@H]1N[C@H](CNC(=O)/C=C/c2ccc(Cl)cc2Cl)CCN(CC(c2ccccc2)c2ccccc2)C1=O [Compound 160, (E)-3-(2,4-dichlorophenyl)-N-(((3S,5S)-1-(2,2-diphenylethyl)-3-(3-guanidino-propyl)-2-oxo-1,4-diazepan-5-yl)methyl)acrylamide]
24 | < 10000 nM | N=C(N)NCCC[C@@H]1N[C@H](CNC(=O)C23CC4CC(CC(C4)C2)C3)CCN(CC(c2ccccc2)c2ccccc2)C1=O [Compound 161, N-(((3S,5S)-1-(2,2-diphenylethyl)-3-(3-guanidinopropyl)-2-oxo-1,4-diazepan-5-yl)methyl)-adamantane-1-carboxamide]
25 | < 10000 nM | N=C(N)NCCC[C@@H]1N[C@H](CNC(=O)COc2ccccc2)CCN(CC(c2ccccc2)c2ccccc2)C1=O [Compound 162, N-(((3S,5S)-1-(2,2-diphenylethyl)-3-(3-guanidinopropyl)-2-oxo-1,4-diazepan-5-yl)methyl)-2-phenoxyacetamide]
26 | < 1000 nM | COc1cc2ccccc2cc1C(=O)NC[C@@H]1CCN(CC(c2ccccc2)c2ccccc2)C(=O)[C@H](CCCNC(=N)N)N1 [Compound 163, N-(((3S,5S)-1-(2,2-diphenylethyl)-3-(3-guanidinopropyl)-2-oxo-1,4-diazepan-5-yl)methyl)-3-methoxy-2-naphthamide]
27 | < 1000 nM | N=C(N)NCCC[C@@H]1N[C@H](CNC(=O)c2ccc(Br)cc2)CCN(CC(c2ccccc2)c2ccccc2)C1=O [Compound 164, 4-bromo-N-(((3S,5S)-1-(2,2-diphenylethyl)-3-(3-guanidinopropyl)-2-oxo-1,4-diazepan-5-yl)methyl)benzamide]
28 | < 1000 nM | N=C(N)NCCC[C@@H]1N[C@H](CNC(=O)[C@@H]2COc3ccccc3O2)CCN(CC(c2ccccc2)c2ccccc2)C1=O [Compound 165, (S)-N-(((3S,5S)-1-(2,2-diphenylethyl)-3-(3-guanidinopropyl)-2-oxo-1,4-diazepan-5-yl)methyl)-2,3-dihydrobenzo[b][1,4]dioxine-2-carboxamide]
